Target: T1, full-length human PIKFYVE (N-terminal GST-fusion) (Homo sapiens, UniProt Q9Y2I7, L932S/Q1183K/Q995L/S1033A/S696N/T998S)
T1 construct: A full-length human PIKFYVE [1-2098(end) amino acids; purchased Carna Biosciences; host or cells: baculovirus expression system
Assay: PIKfyve Biochemical Assay (ADP-Glo Kinase assay, Carna Biosciences)
Experimental: PIKfyve Biochemical Assay. The biochemical PIKFyve inhibition assays were run by Carna Biosciences according to proprietary methodology based on the Promega ADP-Glo™ Kinase assay. […] GST-PIKFYVE was purified by using glutathione sepharose chromatography and used in an ADP-Glo™ Kinase assay (Promega). Reactions were set up by adding the test compound solution, substrate solution, ATP solution and kinase solution, each at 4× final concentrations. Reactions were prepared with assay buffer (50 mM MOPS, 1 mM DTT, pH7.2), mixed, and incubated in black 384 well polystyrene plates for 1 hour at room temperature. ADP-Glo™ reagent was then added for 40 minutes, followed by kinase detection reagent for an additional 40 minutes. The kinase activity was evaluated by detecting relative light units on a luminescence plate reader. Samples were run in duplicate from 10 μM to 3 nM. […] IC50 values were calculated from concentration vs % inhibition curves by fitting to a four-parameter logistic curve.
The biochemical PIKFyve inhibition assays were run by Carna Biosciences according to proprietary methodology based on the Promega ADP-Glo™ Kinase assay. […] The kinase activity was evaluated by detecting relative light units on a luminescence plate reader. […] IC50 values were calculated from concentration vs % inhibition curves by fitting to a four-parameter logistic curve. […]

T1 sequence (Q9Y2I7 whole entry S696N/L932S/Q995L/T998S/S1033A/Q1183K, the tested form may be a part): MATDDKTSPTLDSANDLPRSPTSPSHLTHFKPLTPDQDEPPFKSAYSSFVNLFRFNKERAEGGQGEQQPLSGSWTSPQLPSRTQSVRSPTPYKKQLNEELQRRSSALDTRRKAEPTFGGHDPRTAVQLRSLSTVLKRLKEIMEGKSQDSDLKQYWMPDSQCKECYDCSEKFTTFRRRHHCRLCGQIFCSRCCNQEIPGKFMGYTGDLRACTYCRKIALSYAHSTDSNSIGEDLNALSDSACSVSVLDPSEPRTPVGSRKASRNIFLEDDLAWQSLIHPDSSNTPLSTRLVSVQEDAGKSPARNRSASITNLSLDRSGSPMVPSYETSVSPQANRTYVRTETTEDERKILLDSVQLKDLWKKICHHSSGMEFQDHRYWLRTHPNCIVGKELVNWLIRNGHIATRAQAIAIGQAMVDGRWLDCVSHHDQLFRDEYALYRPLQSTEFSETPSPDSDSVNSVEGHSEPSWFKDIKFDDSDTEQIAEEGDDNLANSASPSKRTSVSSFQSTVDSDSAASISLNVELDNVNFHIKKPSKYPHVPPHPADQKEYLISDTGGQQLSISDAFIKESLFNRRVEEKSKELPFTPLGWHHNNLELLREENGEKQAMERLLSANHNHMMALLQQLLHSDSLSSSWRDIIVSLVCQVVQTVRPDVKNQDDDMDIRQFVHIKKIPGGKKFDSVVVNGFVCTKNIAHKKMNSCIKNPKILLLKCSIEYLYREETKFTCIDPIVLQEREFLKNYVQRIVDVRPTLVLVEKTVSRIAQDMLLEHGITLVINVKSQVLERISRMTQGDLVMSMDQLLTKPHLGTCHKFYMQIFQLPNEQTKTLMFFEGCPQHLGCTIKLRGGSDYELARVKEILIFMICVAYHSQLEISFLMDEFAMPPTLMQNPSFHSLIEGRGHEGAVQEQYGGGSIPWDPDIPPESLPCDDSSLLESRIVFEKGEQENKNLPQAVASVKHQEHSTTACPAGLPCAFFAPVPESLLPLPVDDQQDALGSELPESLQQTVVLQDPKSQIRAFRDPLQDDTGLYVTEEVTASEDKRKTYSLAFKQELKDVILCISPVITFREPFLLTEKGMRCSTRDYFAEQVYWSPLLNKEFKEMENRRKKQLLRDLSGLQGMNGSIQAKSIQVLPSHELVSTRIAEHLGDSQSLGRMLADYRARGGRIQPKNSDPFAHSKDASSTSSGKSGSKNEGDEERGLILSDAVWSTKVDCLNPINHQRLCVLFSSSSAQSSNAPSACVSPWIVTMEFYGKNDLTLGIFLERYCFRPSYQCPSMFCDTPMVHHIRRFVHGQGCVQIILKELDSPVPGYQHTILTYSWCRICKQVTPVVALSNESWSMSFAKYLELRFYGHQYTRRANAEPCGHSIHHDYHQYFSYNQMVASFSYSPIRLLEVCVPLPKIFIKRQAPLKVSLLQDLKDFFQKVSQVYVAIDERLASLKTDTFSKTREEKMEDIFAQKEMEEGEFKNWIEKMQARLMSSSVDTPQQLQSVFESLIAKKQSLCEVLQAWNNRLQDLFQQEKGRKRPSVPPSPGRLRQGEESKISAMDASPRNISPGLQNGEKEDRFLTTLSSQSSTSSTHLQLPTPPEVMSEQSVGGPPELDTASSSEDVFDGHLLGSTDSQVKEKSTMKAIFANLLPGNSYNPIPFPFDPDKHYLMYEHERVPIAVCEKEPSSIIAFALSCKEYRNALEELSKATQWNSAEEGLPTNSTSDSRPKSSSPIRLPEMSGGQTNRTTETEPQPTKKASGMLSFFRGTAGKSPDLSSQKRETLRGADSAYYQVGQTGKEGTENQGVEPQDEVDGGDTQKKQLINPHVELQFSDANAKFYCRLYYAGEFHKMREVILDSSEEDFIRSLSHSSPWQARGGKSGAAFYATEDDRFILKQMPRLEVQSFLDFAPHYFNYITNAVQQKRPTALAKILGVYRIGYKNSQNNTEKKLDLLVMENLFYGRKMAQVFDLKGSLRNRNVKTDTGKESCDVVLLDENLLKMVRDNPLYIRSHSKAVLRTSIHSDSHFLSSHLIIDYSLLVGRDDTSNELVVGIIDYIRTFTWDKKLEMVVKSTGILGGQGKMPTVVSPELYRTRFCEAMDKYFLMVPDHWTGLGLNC

- IC50: 4.41 µM
Compound: CCn1c(C(C)O)nc2c(N3CCCCC3)nc(-c3cccc(-c4ccn(C)n4)c3)nc21 (stereo not shown) [Compound 339, 1-(9-ethyl-2-(3-(1-methyl-1H-pyrazol-3-yl)phenyl)-6-(piperidin-1-yl)-9H-purin-8-yl)ethan-1-ol]

Source: US20250353851A1, “PURINES AND METHODS OF THEIR USE” (Kineta, Inc., priority 2021, published 2025)
